# From patent US20240158446A1, “CYCLIC COMPOUND HAVING SELECTIVE INHIBITORY ACTION ON KRAS OVER HRAS AND NRAS” (CHUGAI SEIYAKU KABUSHIKI KAISHA, priority 2021, published 2024)
# Where two headings read alike, the source gives them in different places. Where a SMILES comes first, the peptide text is derived from it. Bridges are numbered along the chain shown (N, C = ends). [ ]: non-standard residue; d: D form. The star is where a group is joined. hPhe(3,5-F2-4-CF3) = N[C@@H](CCc1cc(F)c(C(F)(F)F)c(F)c1)C(=O)O; hPhe(3-Cl-4-CF3) = N[C@@H](CCc1ccc(C(F)(F)F)c(Cl)c1)C(=O)O; NPrPhe(4-CF3) = CCCN[C@@H](Cc1ccc(C(F)(F)F)cc1)C(=O)O; NMeAbu(4,4,4-F3) = CN[C@@H](CC(F)(F)F)C(=O)O; NMeGly(cPent) = CN[C@H](C(=O)O)C1CCCC1; Pro(4,4-F2) = O=C(O)[C@@H]1CC(F)(F)CN1; Hyp = O=C(O)[C@@H]1C[C@@H](O)CN1; NMeD = CN[C@@H](CC(=O)O)C(=O)O; NMeL = CN[C@@H](CC(C)C)C(=O)O; Morpholide = C1CN(*)CCO1; NMeA = CN[C@@H](C)C(=O)O; Ac5c = NC1(C(=O)O)CCCC1; Aze = O=C(O)[C@@H]1CCN1; Ac4c = NC1(C(=O)O)CCC1; NEtG = CCNCC(=O)O; Sar = CNCC(=O)O
# Legend:
# [1] = target: GDP-bound NRAS wild-type protein (Homo sapiens, UniProt P01111); assay: Binding to NRAS by surface plasmon resonance (SPR), Single Cycle Kinetics; conditions: SPR, GDP-bound NRAS wild-type protein vs GDP-bound KRAS wild-type protein
# Sequence of GDP-bound NRAS wild-type protein (P01111 whole entry): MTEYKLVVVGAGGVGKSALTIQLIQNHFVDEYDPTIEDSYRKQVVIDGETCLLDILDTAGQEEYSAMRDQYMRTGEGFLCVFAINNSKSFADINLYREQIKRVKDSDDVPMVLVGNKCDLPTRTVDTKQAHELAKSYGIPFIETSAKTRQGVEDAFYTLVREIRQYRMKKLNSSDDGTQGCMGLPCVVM
# [2] = target: GDP-bound HRAS wild-type protein (Homo sapiens, UniProt P01112); assay: Binding to HRAS by surface plasmon resonance (SPR), Single Cycle Kinetics; conditions: SPR, GDP-bound HRAS wild-type protein vs GDP-bound KRAS wild-type protein
# Sequence of GDP-bound HRAS wild-type protein (P01112 whole entry): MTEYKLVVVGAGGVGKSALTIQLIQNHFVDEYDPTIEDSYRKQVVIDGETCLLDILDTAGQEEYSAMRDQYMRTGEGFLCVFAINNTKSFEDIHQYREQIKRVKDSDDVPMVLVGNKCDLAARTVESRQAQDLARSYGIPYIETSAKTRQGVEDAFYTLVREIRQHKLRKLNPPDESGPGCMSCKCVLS
# [3] = target: GDP-bound KRAS wild-type protein (Homo sapiens, UniProt P01116); assay: Binding to KRAS by surface plasmon resonance (SPR), Single Cycle Kinetics; conditions: GDP-bound KRAS wild-type protein, read-out: KRAS KD
# Sequence of GDP-bound KRAS wild-type protein (P01116 whole entry): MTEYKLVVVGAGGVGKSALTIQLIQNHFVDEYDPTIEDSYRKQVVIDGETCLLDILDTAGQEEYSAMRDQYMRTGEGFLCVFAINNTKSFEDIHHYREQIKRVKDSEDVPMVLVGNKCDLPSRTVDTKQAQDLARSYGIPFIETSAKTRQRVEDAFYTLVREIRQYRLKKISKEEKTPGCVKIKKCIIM
# [4] = SPR Single Cycle Kinetics, 1:1 binding model
Compound,"Kd [3, 4] [nM]","Kd ([3]; SPR, Single Cycle Kinetics) [nM]",NRAS/KRAS (ratio of KD value for NRAS to KD value for KRAS) [1],HRAS/KRAS (ratio of KD value for HRAS to KD value for KRAS) [2],NRAS/KRAS (ratio of KD value with respect to NRAS to KD value with respect to KRAS) [1],HRAS/KRAS (ratio of KD value with respect to HRAS to KD value with respect to KRAS) [2]
"CCCN1C(=O)CN(C)C(=O)CN(CC)C(=O)[C@H]([C@@H](C)CC)NC(=O)[C@H](CC(C)C)N(C)C(=O)C[C@@H](C(=O)N2CCOCC2)N(C)C(=O)[C@H](C2CCCC2)N(C)C(=O)C2(CCC2)NC(=O)[C@@H]2CC(F)(F)CN2C(=O)[C@H](CCc2ccc(C(F)(F)F)c(Cl)c2)NC(=O)CN(C)C(=O)[C@@H]1Cc1ccc(C(F)(F)F)cc1 [PP0400] ([NMeL]I[NEtG][Sar][NPrPhe(4-CF3)][Sar][hPhe(3-Cl-4-CF3)][Pro(4,4-F2)][Ac4c][NMeGly(cPent)][NMeD]-Morpholide; lactam N-11)",0.17,–,B (a compound having 3 or more and less than 10 is denoted as B),B (a compound having 3 or more and less than 10 is denoted as B),–,–
"CCCN1C(=O)[C@@H]2CCN2C(=O)[C@H](C)N(C)C(=O)[C@H]([C@@H](C)CC)NC(=O)[C@H](CC(C)C)N(C)C(=O)C[C@@H](C(=O)N(C)C)NC(=O)[C@H](C2CCCC2)N(C)C(=O)C2(CCC2)NC(=O)[C@@H]2CC(F)(F)CN2C(=O)[C@H](CCc2ccc(C(F)(F)F)c(Cl)c2)NC(=O)CN(C)C(=O)[C@@H]1Cc1ccc(C(F)(F)F)cc1 [PP0382] ([NMeL]I[NMeA][Aze][NPrPhe(4-CF3)][Sar][hPhe(3-Cl-4-CF3)][Pro(4,4-F2)][Ac4c][NMeGly(cPent)]D-NMe2; lactam N-11)",0.35,–,C (A compound having a KD ratio of 0.1 or more and less than 3 is denoted as C),B (a compound having 3 or more and less than 10 is denoted as B),–,–
"CCCN1C(=O)CN(C)C(=O)[C@@H]2CCN2C(=O)[C@H]([C@@H](C)CC)NC(=O)[C@H](CC(C)C)N(C)C(=O)C[C@@H](C(=O)N2CCOCC2)N(C)C(=O)[C@H](CC(F)(F)F)N(C)C(=O)C2(CCCC2)NC(=O)[C@@H]2CCCN2C(=O)[C@H](CCc2cc(F)c(C(F)(F)F)c(F)c2)NC(=O)CN(C)C(=O)[C@@H]1Cc1ccc(C(F)(F)F)cc1 [PP0784] ([NMeL]I[Aze][Sar][NPrPhe(4-CF3)][Sar][hPhe(3,5-F2-4-CF3)]P[Ac5c][NMeAbu(4,4,4-F3)][NMeD]-Morpholide; lactam N-11)",17,–,–,–,B (a compound having 3 or more and less than 10 is denoted as B),B (a compound having 3 or more and less than 10 is denoted as B)
CCCN1C(=O)[C@@H]2CCN2C(=O)CN(C)C(=O)[C@H]([C@@H](C)CC)NC(=O)[C@H](CC(C)C)N(C)C(=O)C[C@@H](C(=O)N(C)C)NC(=O)[C@H](C2CCCC2)N(C)C(=O)C2(CCCC2)NC(=O)[C@@H]2C[C@@H](OCC)CN2C(=O)[C@H](CCc2ccc(C(F)(F)F)c(Cl)c2)NC(=O)CN(C)C(=O)[C@@H]1Cc1ccc(C(F)(F)F)cc1 [PP0389] ([NMeL]I[Sar][Aze][NPrPhe(4-CF3)][Sar][hPhe(3-Cl-4-CF3)][Hyp](Et)[Ac5c][NMeGly(cPent)]D-NMe2; lactam N-11),0.16,–,C (A compound having a KD ratio of 0.1 or more and less than 3 is denoted as C),B (a compound having 3 or more and less than 10 is denoted as B),–,–

# The next lines start with results.
"Kd [3, 4] [nM]","Kd ([3]; SPR, Single Cycle Kinetics) [nM]",Compound,NRAS/KRAS (ratio of KD value for NRAS to KD value for KRAS) [1],HRAS/KRAS (ratio of KD value for HRAS to KD value for KRAS) [2],NRAS/KRAS (ratio of KD value with respect to NRAS to KD value with respect to KRAS) [1],HRAS/KRAS (ratio of KD value with respect to HRAS to KD value with respect to KRAS) [2]
–,1.4,CCO[C@@H]1C[C@H]2C(=O)N[C@@]3(C)CCCCCCC[C@@H](C(=O)N[C@@H]([C@@H](C)CC)C(=O)N(C)CC(=O)N(C)[C@H]4CCCCN(C4=O)[C@@H](Cc4ccc(C(F)(F)F)cc4)C(=O)N(C)CC(=O)N[C@@H](CCc4cc(F)c(C(F)(F)F)c(F)c4)C(=O)N2C1)N(C)C(=O)C[C@@H](C(=O)N1CCOCC1)N(C)C(=O)[C@H](C1CCCC1)N(C)C3=O [PP0993],B (a compound having 3 or more and less than 10 is denoted as B),B (a compound having 3 or more and less than 10 is denoted as B),–,–
–,0.29,CC[C@@H]1C[C@H]2C(=O)NC3(CCCC3)C(=O)N(C)[C@@H](C3CCCC3)C(=O)N(C)[C@H](C(=O)N(C)CC)CC(=O)N(C)[C@@H](C)C(=O)N[C@@H]([C@@H](C)CC)C(=O)N(C)CC(=O)N(C)[C@H]3C/C=C\CCN(C3=O)[C@@H](Cc3ccc(C(F)(F)F)cc3)C(=O)N(C)CC(=O)N[C@@H](CCc3cc(F)c(C(F)(F)F)c(F)c3)C(=O)N2C1 [PP2271],A (a compound having 10 or more and less than 20 is denoted as A),A (a compound having 10 or more and less than 20 is denoted as A),–,–
